# Where two headings read alike, the source gives them in different places.
# Columns and labels:
# HIV-1 IIIB = assay: microbe, parasite or virus in culture; details: read-out: IC50 HIV-1 Infection
# Procedure: The crude extract of Cassia abbreviata and all isolated compounds were assessed for their anti-HIV activity in MT4 cells infected by the reference strain HIV-1 IIIB (Figure 3). […] Enfuvirtide and Plerixafor are entry inhibitors for positive controls.
# (§1) MT4 cells were obtained through the NIH AIDS Reagent Program and cultured in RPMI 1640 (Lonza, Wijchen, the Netherlands) supplemented with 10% heat-inactivated fetal bovine serum (Lonza, the Netherlands) and 2mM L-glutamine (Invitrogen, Gosselies, Belgium). MT-4 cells were incubated with the crude extract of Cassia abbreviatta or the tested compounds alone to assess cytotoxicity, or HIV-1 IIIB alone or a mixture of the tested extract and compounds and HIV-1 IIIB viruses to assess protection against HIV-1 infection. After five days, protection from viral infection and the cytotoxicity were evaluated in parallel using (3-(4,5-dimethylthiazol-2-yl)-2,5-diphenyltetrazolium bromide (MTT, Sigma, Liège, Belgium) by measuring OD540 and OD690 using a POLARstar Omega Plate Reader (BMG Labtech, Ortenberg, Germany). Data were normalized to cells without treatment. Values of OD540−OD690 were calculated to determine IC50 values in Prism. The entry inhibitors, enfuvirtide, and AMD3100 (Sigma Aldrich, Liège, Belgium), were used as positive controls.
# [1] = Cytotoxicity in MT4 cells (MTT); type: cell-based; details: for IC50 at 5 days: human
# Procedure: as §1, with “After five days, protection from viral infection and the cytotoxicity were evaluated in parallel using (3-(4,5-dimethylthiazol-2-yl)-2,5-diphenyltetrazolium bromide (MTT, Sigma, Liège, Belgium) by measuring OD540 and OD690 using a POLARstar Omega Plate Reader (BMG Labtech, Ortenberg, Germany).” left out
# [2] = Human immunodeficiency virus 1, IIIB, MT4, 120 h
# [3] = MT4 cells incubated with compound alone, five days, MTT, read-out: IC50 Cytotoxicity
IC50 (HIV-1 IIIB; [2]),Compound,"IC50 (HIV-1 IIIB; MT4 cells infected by reference strain HIV-1 IIIB, five days, MTT, mean ± SD, three experiments)",IC50 at 5 days [1],"IC50 ([1]; MT4 cells incubated with compound alone, five days, MTT)","IC50 at 5 days [1, 3]"
7.95 ± 2.57 µM,"CC1(C)CC[C@]2(C(=O)O)CC[C@]3(C)C(=CC[C@@H]4[C@@]5(C)CC[C@H](O)C(C)(C)[C@@H]5CC[C@]43C)[C@@H]2C1 [Oleanolic acid (17), oleanolic acid]",–,–,–,> 333 µM
3.58 ± 0.27 µM,"Oc1cc(O)cc(/C=C/c2ccc(O)c(O)c2)c1 [Piceatannol (22), piceatannol]",–,> 333 µM,–,–
0.075 ± 0.009 µM,"c1cc(CN2CCCNCCNCCCNCC2)ccc1CN1CCCNCCNCCCNCC1 [Plerixafor (AMD3100), Plerixafor, reference compound]",–,> 1 µM,–,–
16 ± 3.04 µM,"CCCCCCCCCCCCCCCC(=O)O [Palmitic acid (28), Palmitic acid]",–,> 333 µM,–,–

# Further lines, the compound ahead of its results:
Compound,IC50 (HIV-1 IIIB; [2]),"IC50 (HIV-1 IIIB; MT4 cells infected by reference strain HIV-1 IIIB, five days, MTT, mean ± SD, three experiments)",IC50 at 5 days [1],"IC50 ([1]; MT4 cells incubated with compound alone, five days, MTT)","IC50 at 5 days [1, 3]"
Enfuvirtide,–,0.0096 ± 0.001 µM,–,–,–
"CC12OC(=O)CC1C1Oc3c(c(O)cc(O)c3C3c4ccc(O)cc4OC(c4ccc(O)cc4)C3O)CC1O2 (stereo not drawn) [Cassiabrevone (1), guibourtinidol (4α→8) planchol A]",11.9 ± 2.14 µM,–,> 333 µM,–,–
enfuvirtide,–,–,–,> 1 µM,–
"O=C1c2c(O)cc(O)cc2OC(c2ccc(O)c(O)c2)C1O (stereo not shown) [Taxifolin (8), taxifolin]",49 ± 5.02 µM,–,–,–,> 333 µM
"Oc1ccc([C@H]2Oc3cc(O)ccc3[C@@H](c3c(O)cc(O)c4c3O[C@H](c3ccc(O)cc3)[C@H](O)C4)[C@@H]2O)cc1 [Guibourtinidol-(4α→8)-epiafzelechin (4), guibourtinidol-(4α→8)-epiafzelechin]",15.4 ± 9.09 µM,–,> 333 µM,–,–
